The Ki is the dissociation constant of the complex between target and ligand, obtained from inhibition or displacement. Low values mean tighter binding, high ones weaker binding. In general, IC50 refers to the midpoint of a concentration-inhibition curve.

In one assay the target is T1, human AChE (Homo sapiens, UniProt P22303).
T1 construct: purchased Sigma-Aldrich (Prague, Czech Republic); host or cells: human red blood cells
Nature of the assay: Kinetic study of inhibition of AChE hydrolysis (Lineweaver-Burk, nonlinear regression). In kind it is biochemical. To be noted: for Ki: substrate acetylthiocholine; for type of inhibition: sum-of-squares F-test, p<0.05. The procedure: To obtain insight into the interactions of BIGI-3h and BIGI-3e with human AChE, a kinetic study was conducted. Substrate concentration - enzyme velocity curves were recorded in the presence of different concentrations of the tested compounds. […] The type of inhibition and corresponding inhibition constants (Ki and Ki') were determined by the nonlinear regression analysis of data. Results for each type model of inhibition (competitive, non-competitive, uncompetitive and mixed) were compared with sum-of-squares F-test. […] BIGI-3h and BIGI-3e bind to both free AChE and AChE-substrate complex, affecting the binding of substrate in the active site of enzyme, interacting with its allosteric peripheral anionic site. Interaction with this site causes conformational changes of the enzyme resulting also in changes of its active site. […]. Measured values are consistent with the IC50 values for AChE. It appears that both tested compounds tend to bind free AChE more than enzyme-substrate complex.

Assay [1] is described as follows: Oxygen Radical Absorbance Capacity (ORAC-FL) assay. To be noted: Trolox equivalents (µmol of Trolox equivalent/µmol of compound). The procedure:
The radical scavenging capacity of the TFAHs was determined by the ORAC-FL method using fluorescein as a fluorescent probe^33,34. (±)-6-Hydroxy-2,5,7,8-tetramethylchromane-2-carboxylic acid (Trolox), fluorescein (FL) and 2,2'-azobis(amidinopropane) dihydrochloride (AAPH) were purchased from Sigma-Aldrich. A Varioskan Flash plate reader with built-in injectors (Thermo Scientific) was used. The reaction was carried out at 37 °C in 75 mM phosphate buffer (pH= 7.4), and the final volume reaction mixture was 200 µL. The tested compounds and Trolox standard were dissolved in DMSO to 10 mM and further diluted in 75 mM phosphate buffer (pH= 7.4). The final concentrations were 0.1-1 µM for the tested compounds and 1-8 µM for Trolox standard. The blank was composed of 120 µL of FL, 60 µL of AAPH and 20 µL of phosphate buffer (pH=7.4) and was added in each assay.
The net AUC corresponding to a sample was calculated as follows: Net AUC = AUCantioxidant −AUCblank . [formula]
Regression equations were calculated by plotting the net AUC against the antioxidant concentration. The ORAC value was obtained by dividing the slope of the latter curve between the slope of the Trolox curve obtained in the same assay. Final ORAC values were expressed as µmol of Trolox equivalent/µmol of TFAH.

Another assay deals with T2, Human recombinant GSK-3β (Homo sapiens, UniProt P49841).
T2 construct: purchased Millipore (Millipore Iberica S.A.U.)
Nature of the assay: GSK-3β inhibition in vitro assay (Kinase-Glo luminescence). In kind it is biochemical. To be noted: ATP 1 µM, GSM substrate 25 µM; mean ± SEM. The procedure:
Human recombinant GSK-3β, prephosphorylated polypeptide substrate and white 96-well plates were purchased from Millipore (Millipore Iberica S.A.U.). Kinase-Glo Luminescent Kinase Assay was obtained from Promega (Promega Biotech Iberica, SL). Adenosinetriphosphate (ATP) and all other reagents were from Sigma-Aldrich. Assay buffer contained 50 mM 4-(2-hydroxyethyl)-1- piperazineethanesulfonic acid (HEPES) (pH 7.5), 1 mM ethylenediaminetetraacetic acid (EDTA), 1 mM ethylene glycol tetraacetic acid (EGTA), and 15 mM magnesium acetate. The in solution experiments for GSK-3β inhibition analysis were performed by following the method developed by Baki et al^42. In a typical assay, 10 µL of test compound (dissolved in DMSO at 1 mM concentration and diluted in advance in assay buffer to the desired concentration) and 10 µL (20 ng) of enzyme were added to each well in presence of 20 µL of assay buffer containing GSM substrate and ATP in order to reach a 25 µM and 1 µM final concentration respectively. […] After a 30 min incubation time at 30 °C, the enzymatic reaction was stopped by adding 40 µL of Kinase-Glo reagent. Glow-type luminescence was recorded after 10 min using a VictorX 3 PerkinElmer plate reader. […]. The linear regression parameters were determined and the IC50 extrapolated (GraphPad Prism 4.0, GraphPad Software Inc.).
On the technique in general: Kinase-Glo measures the ATP left after a reaction by luminescence.

Assay [2] addresses T3, Human red-blood cell acetylcholinesterase (hAChE; EC 3.1.1.7) (Homo sapiens, UniProt P22303).
T3 construct: Human red-blood cell acetylcholinesterase; purchased Sigma-Aldrich (Prague, Czech Republic); host or cells: human red blood cells
Nature of the assay: biochemical. To be noted: pH 7.4, 37 °C, mean ± SEM, read-out: AChE (IC50 µM). The protocol: The AChE and BuChE inhibitory activity of the tested compounds was determined using a modified Ellman's method^31, 32.Human red-blood cell acetylcholinesterase (hAChE; EC 3.1.1.7), and human recombinant butyrylcholinesterase (hBuChE; EC 3.1.1.8), 5,5'-dithiobis(2-nitrobenzoic acid) (Ellman's reagent, DTNB), phosphate buffer (PB, pH 7.4), acetylthiocholine (ATC), and butyrylthiocholine (BTC), were purchased from Sigma-Aldrich (Prague, Czech Republic). Nunc polystyrene 96-well microplates with flat-bottom shape (ThermoFisher Scientific, USA) were used for the measurement and all the assay were carried out in 0.1 M KH2PO4/K2HPO4 buffer, pH 7.4. Enzyme solution was prepared at activity 2.0 units/mL in 2 mL aliquots. The assay mixture (100 µL) consisted of 40 µL of 0.1 M phosphate buffer (pH 7.4), 20 µL of 0.01 M DTNB, 10 µL of enzyme, and 20 µL of 0.01 M substrate (ATC iodide solution). Tested compounds were dissolved first in methanol (BIGI 23 in DMSO) and then further diluted by assay buffer to the final concentration. […] Enzyme with the inhibitor was preincubated for 5 min in the assay mixture and then the reaction was started by addition of 20 µL of substrate (ATC for AChE, BTC for BuChE). […] Each concentration was assayed in triplicate. The obtained data were used to compute the percentage inhibition (I; Equation 1): I = 1−(ΔAi)/(ΔA0) [%] [formula] ΔAi indicates the absorbance change provided by cholinesterase exposed to AChE inhibitors and ΔA0 indicates absorbance change caused by intact cholinesterase (phosphate buffer was used instead of AChE inhibitor solution).

Where [3] appears, read: binding to AChE-substrate complex.

T3 sequence (P22303 32-617 isoform P22303-2 limits assumed): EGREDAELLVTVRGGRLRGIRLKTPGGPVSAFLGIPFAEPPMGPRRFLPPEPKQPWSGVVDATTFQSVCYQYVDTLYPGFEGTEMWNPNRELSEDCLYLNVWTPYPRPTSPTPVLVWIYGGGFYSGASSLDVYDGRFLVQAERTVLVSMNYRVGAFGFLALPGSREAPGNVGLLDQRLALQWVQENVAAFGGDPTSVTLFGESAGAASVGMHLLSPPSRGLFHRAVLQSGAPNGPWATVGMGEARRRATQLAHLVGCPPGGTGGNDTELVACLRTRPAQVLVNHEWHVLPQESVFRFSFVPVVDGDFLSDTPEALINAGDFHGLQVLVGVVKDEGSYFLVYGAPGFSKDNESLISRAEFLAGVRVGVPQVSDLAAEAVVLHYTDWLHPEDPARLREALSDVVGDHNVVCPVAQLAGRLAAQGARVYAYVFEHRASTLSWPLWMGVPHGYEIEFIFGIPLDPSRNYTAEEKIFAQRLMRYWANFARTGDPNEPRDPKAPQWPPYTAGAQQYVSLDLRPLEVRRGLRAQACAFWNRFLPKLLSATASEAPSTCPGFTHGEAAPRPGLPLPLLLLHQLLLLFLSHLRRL
T1 sequence (P22303 32-617 isoform P22303-2 limits assumed): as above
T2 sequence (P49841 whole entry): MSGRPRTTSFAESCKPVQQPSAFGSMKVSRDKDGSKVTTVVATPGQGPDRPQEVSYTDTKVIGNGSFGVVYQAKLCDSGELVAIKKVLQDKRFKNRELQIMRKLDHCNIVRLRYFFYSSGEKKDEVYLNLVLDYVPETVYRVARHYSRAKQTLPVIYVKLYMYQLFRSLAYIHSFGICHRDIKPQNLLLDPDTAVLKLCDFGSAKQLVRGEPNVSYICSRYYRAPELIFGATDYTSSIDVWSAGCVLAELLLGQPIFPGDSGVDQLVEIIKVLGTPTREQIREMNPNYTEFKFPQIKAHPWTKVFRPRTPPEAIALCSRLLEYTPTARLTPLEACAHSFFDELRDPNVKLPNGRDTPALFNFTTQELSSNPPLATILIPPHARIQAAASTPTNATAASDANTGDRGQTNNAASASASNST

`CCOC(=O)C1=C(C)N(CCC2CCN(Cc3ccccc3)CC2)C(=O)NC1c1coc2c(Cl)cc(Cl)cc2c1=O` (racemic) [BIGI-3h, ethyl 1-(2-(1-benzylpiperidin-4-yl)ethyl)-4-(6,8-dichloro-4-oxo-4H-chromen-3-yl)-6-methyl-2-oxo-1,2,3,4-tetrahydropyrimidine-5-carboxylate]: the inhibition constant (Ki) stood at 77.6 ± 16.4 nM on human AChE (setting [3]) and 21.5 ± 5.19 nM on human AChE (binding to free AChE). Besides, the type of inhibition entry on human AChE is reported as “mixed non-competitive”. The ORAC in assay [1] is given as 3.65± 0.07 TE. Also, the half-inhibitory concentration (IC50) at Human recombinant GSK-3β was 29.1 µM; in assay [2] it was 0.06 µM.
Regarding `CCOC(=O)C1=C(C)N(CCC2CCN(Cc3ccccc3)CC2)C(=O)NC1c1coc2ccc(Br)cc2c1=O` (stereo not shown) [BIGI-3e, ethyl 1-(2-(1-benzylpiperidin-4-yl)ethyl)-4-(6-bromo-4-oxo-4H-chromen-3-yl)-6-methyl-2-oxo-1,2,3,4-tetrahydropyrimidine-5-carboxylate], the Ki came to 89.5 ± 12.5 nM at human AChE (setting [3]) and 51 ± 12.7 nM at human AChE (binding to free AChE). For the same compound, the type of inhibition entry on human AChE is “mixed non-competitive”. The ORAC in assay [1] was 3.26 ± 0.12 TE. For the same compound, in assay [2], the IC50 is 0.06 µM.
Regarding `CCOC(=O)C1=C(C)N(CCCC2CCN(Cc3ccccc3)CC2)C(=O)NC1c1coc2cc(CC)ccc2c1=O` (stereo not shown) [BIGI-3k, ethyl 1-(3-(1-benzylpiperidin-4-yl)propyl)-4-(7-ethyl-4-oxo-4H-chromen-3-yl)-6-methyl-2-oxo-1,2,3,4-tetrahydropyrimidine-5-carboxylate], the ORAC in assay [1] came to 2.75 ± 0.16 TE. For the same compound, the IC50 in assay [2] is 0.5 ± 0.02 µM.

Values taken from patent EP4168403B1 (priority 2020, dated 2021).
